Tests used:
[1] = target: T1, Recombinant ROCK2 (amino acids 5-554) (Homo sapiens, UniProt O75116); test: ROCK inhibition assay, LANCE Ultra TR-FRET kinase assay (ROCK2); type: biochemical; conditions: 4 μM ATP, 50 nM ULight-CREBtide substrate
T1 construct: ROCK2 (amino acids 5-554); by word order, ROCK2 from SignalChem
Method in brief: (§1)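 Reaction buffer 50 mM HEPES pH 7.5, 10 mM MgCl2, 1 mM EGTA, 2 mM DTT; kinase, ULight-CREBtide (50 nM) and ATP (ROCK1 1 μM, ROCK2 4 μM) react 1 h at room temperature. Phospho-Ser133 detected by europium antibody after 10 mM EDTA stop, TR-FRET ex 320 nm; IC50 calculated.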

[2] = target: T2, Recombinant ROCK1 (amino acids 1-477) (Homo sapiens, UniProt Q13464); test: ROCK inhibition assay, LANCE Ultra TR-FRET kinase assay (ROCK1); type: biochemical; conditions: 1 μM ATP, 50 nM ULight-CREBtide substrate
T2 construct: Recombinant ROCK1 (amino acids 1-477); by word order, ROCK1 from Carna Biosciences
Method in brief: as §1

T1 sequence (O75116 5-554): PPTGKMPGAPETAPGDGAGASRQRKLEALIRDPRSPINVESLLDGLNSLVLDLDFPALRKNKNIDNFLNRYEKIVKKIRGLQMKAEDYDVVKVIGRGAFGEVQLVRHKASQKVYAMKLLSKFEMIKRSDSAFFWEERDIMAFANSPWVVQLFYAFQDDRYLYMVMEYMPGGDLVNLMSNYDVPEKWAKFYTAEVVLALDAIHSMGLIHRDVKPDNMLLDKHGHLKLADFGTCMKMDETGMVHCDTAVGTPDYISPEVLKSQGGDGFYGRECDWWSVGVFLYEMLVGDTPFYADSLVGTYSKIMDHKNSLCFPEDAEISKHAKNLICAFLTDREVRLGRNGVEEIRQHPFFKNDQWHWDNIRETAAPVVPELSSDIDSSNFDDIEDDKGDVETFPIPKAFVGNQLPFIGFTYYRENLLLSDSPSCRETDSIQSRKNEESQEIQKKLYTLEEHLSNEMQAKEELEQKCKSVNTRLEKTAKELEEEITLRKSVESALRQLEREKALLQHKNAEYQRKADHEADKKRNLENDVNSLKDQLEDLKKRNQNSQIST
T2 sequence (Q13464 1-477): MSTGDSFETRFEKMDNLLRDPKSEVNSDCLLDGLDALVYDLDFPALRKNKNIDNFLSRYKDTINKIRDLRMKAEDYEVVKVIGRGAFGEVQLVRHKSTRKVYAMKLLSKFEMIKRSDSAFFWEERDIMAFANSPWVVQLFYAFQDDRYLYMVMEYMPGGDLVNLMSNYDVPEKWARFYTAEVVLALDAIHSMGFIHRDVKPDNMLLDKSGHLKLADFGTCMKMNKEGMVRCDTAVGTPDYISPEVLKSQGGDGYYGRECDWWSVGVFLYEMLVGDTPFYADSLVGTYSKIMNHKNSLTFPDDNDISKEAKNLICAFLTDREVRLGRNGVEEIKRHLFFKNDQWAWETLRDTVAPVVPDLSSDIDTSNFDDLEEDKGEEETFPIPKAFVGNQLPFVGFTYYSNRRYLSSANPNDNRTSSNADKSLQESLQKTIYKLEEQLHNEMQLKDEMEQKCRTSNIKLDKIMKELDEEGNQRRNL

SMILES	IC50 [1]	IC50 [2]
CNC(=O)c1cccc(Cn2ccc3cc(-c4conc4C)ccc3c2=O)n1 [Compound 311]	100 to 500 nM	> 501 nM
CNC(=O)c1cc(Cn2ccc3cc(-c4conc4C)ccc3c2=O)ccn1 [Compound 313]	100 to 500 nM	> 501 nM
CNC(=O)c1cc(Cl)cc(Cn2ccc3cc(-c4ccnn4C)ccc3c2=O)c1 [Compound 324]	100 to 500 nM	101 to 500 nM
CNC(=O)c1cccc(Cn2ccc3cc(-c4cnnn4C)ccc3c2=O)c1 [Compound 327]	> 500 nM	> 501 nM
CNC(=O)c1cccc(Cn2ccc3cc(N4CC5CC(C4)O5)ccc3c2=O)c1 [Compound 330]	> 500 nM	> 501 nM
CNC(=O)c1cccc(Cn2ccc3cc(N4CCO[C@@H](C)C4)ccc3c2=O)c1 [Compound 331]	100 to 500 nM	> 501 nM
CC(=O)Nc1cccc(Cn2ccc3cc(-c4ccoc4C)ccc3c2=O)c1 [Compound 332, N-(3-((6-(2-methylfuran-3-yl)-1-oxoisoquinolin-2(1H)-yl)methyl)phenyl)acetamide]	100 to 500 nM	> 501 nM
CC(=O)Nc1cc(F)cc(Cn2ccc3cc(-c4ccoc4C)ccc3c2=O)c1 [Compound 333]	100 to 500 nM	> 501 nM
O=C(Nc1cccc(Cn2ccc3cc(-c4c[nH]nc4C(F)F)ccc3c2=O)c1)c1ccccc1 [Compound 344]	10 to 100 nM	101 to 500 nM
CC(=O)Nc1cccc(Cn2ccc3cc(-c4c[nH]nc4Cl)ccc3c2=O)c1 [Compound 345]	10 to 100 nM	11 to 100 nM
O=C(Nc1cccc(Cn2ccc3cc(-c4c[nH]nc4Cl)ccc3c2=O)c1)C1COC1 [Compound 346]	10 to 100 nM	101 to 500 nM
CC(=O)Nc1cccc(Cn2ccc3cc(-c4conc4C)ccc3c2=O)c1 [Compound 347]	10 to 100 nM	101 to 500 nM
Cc1nocc1-c1ccc2c(=O)n(Cc3cccc(NC(=O)C4COC4)c3)ccc2c1 [Compound 348]	10 to 100 nM	11 to 100 nM
Cc1nocc1-c1ccc2c(=O)n(Cc3cccc(NC(=O)c4ccc(F)cc4)c3)ccc2c1 [Compound 349]	10 to 100 nM	11 to 100 nM
Cc1nocc1-c1ccc2c(=O)n(Cc3cc(F)cc(NC(=O)c4ccccn4)c3)ccc2c1 [Compound 350]	10 to 100 nM	101 to 500 nM
CC(=O)Nc1cc(F)cc(Cn2ccc3cc(-c4conc4C)ccc3c2=O)c1 [Compound 351]	10 to 100 nM	101 to 500 nM
CC(=O)Nc1cccc(Cn2ccc3cc(-c4cn[nH]c4)ccc3c2=O)c1 [Compound 352]	10 to 100 nM	101 to 500 nM
CC(=O)Nc1cc(F)cc(Cn2ccc3cc(-c4ccnc(N)c4)ccc3c2=O)c1 [Compound 353]	100 to 500 nM	> 501 nM
COc1cccc(Cn2cnc3cc(-c4cn[nH]c4)ccc3c2=O)c1 [Compound 354, 3-(3-methoxybenzyl)-7-(1H-pyrazol-4-yl)quinazolin-4(3H)-one]	10 to 100 nM	11 to 100 nM
COc1cccc(Cn2cnc3cc(-c4c[nH]nc4C)ccc3c2=O)c1 [Compound 355]	10 to 100 nM	11 to 100 nM
COc1cccc(Cn2cnc3cc(-c4conc4C)ccc3c2=O)c1 [Compound 357]	10 to 100 nM	11 to 100 nM
COc1cccc(Cn2cnc3cc(-c4ccnn4C)ccc3c2=O)c1 [Compound 358]	10 to 100 nM	11 to 100 nM
COc1cccc(Cn2cnc3cc(-c4ccncc4)ccc3c2=O)c1 [Compound 363]	10 to 100 nM	11 to 100 nM
COc1cccc(Cn2cnc3cc(-c4ccnc(N)c4)ccc3c2=O)c1 [Compound 364]	10 to 100 nM	11 to 100 nM
O=C(NCc1ccccc1)c1cccc(Cn2cnc3cc(-c4cn[nH]c4C(F)(F)F)ccc3c2=O)c1 [Compound 371]	10 to 100 nM	101 to 500 nM
O=C(Nc1ccon1)c1cccc(Cn2cnc3cc(-c4cn[nH]c4C(F)(F)F)ccc3c2=O)c1 [Compound 375]	10 to 100 nM	101 to 500 nM

More lines, now with the values ahead:

IC50 [1]	IC50 [2]	SMILES
< 10 nM	11 to 100 nM	CNC(=O)c1cccc(Cn2cc(Cl)c3cc(-c4conc4C)ccc3c2=O)c1 [Compound 310]
10 to 100 nM	101 to 500 nM	CNC(=O)c1cncc(Cn2ccc3cc(-c4conc4C)ccc3c2=O)c1 [Compound 312]
10 to 100 nM	101 to 500 nM	CNC(=O)c1cccc(Cn2ccc3cc(-c4conc4C)ccc3c2=O)c1F [Compound 314]
< 10 nM	11 to 100 nM	CNC(=O)c1cc(F)cc(C(C)n2ccc3cc(-c4conc4C)ccc3c2=O)c1 (centres unmarked) [Compound 316]
10 to 100 nM	101 to 500 nM	CNC(=O)c1cc(Cn2ccc3cc(-c4conc4C)ccc3c2=O)ccc1F [Compound 317]
< 10 nM	11 to 100 nM	CNC(=O)c1cc(F)cc(Cn2cc(Cl)c3cc(-c4conc4C)ccc3c2=O)c1 [Compound 318]
10 to 100 nM	101 to 500 nM	CNC(=O)c1cc(Cl)cc(Cn2ccc3cc(-c4conc4C)ccc3c2=O)c1 [Compound 319]
10 to 100 nM	101 to 500 nM	[2H]C([2H])([2H])NC(=O)c1cccc(Cn2ccc3cc(-c4ccnn4C)ccc3c2=O)c1 [Compound 321]
10 to 100 nM	101 to 500 nM	CNC(=O)c1cccc(C(C)n2ccc3cc(-c4ccnn4C)ccc3c2=O)c1 (centres unmarked) [Compound 322]
10 to 100 nM	101 to 500 nM	CNC(=O)c1cccc(Cn2ccc3cc(-c4ccncc4)ccc3c2=O)c1 [Compound 325]
10 to 100 nM	101 to 500 nM	CNC(=O)c1cccc(Cn2ccc3cc(N4CCOCC4)ccc3c2=O)c1 [Compound 328, N-methyl-3-((6-morpholino-1-oxoisoquinolin-2(1H)-yl)methyl)benzamide]
10 to 100 nM	101 to 500 nM	CNC(=O)c1cc(F)cc(Cn2ccc3cc(N4CCOCC4)ccc3c2=O)c1 [Compound 329]
10 to 100 nM	101 to 500 nM	CC(=O)Nc1cccc(Cn2ccc3cc(-c4cnoc4C)ccc3c2=O)c1 [Compound 334]
10 to 100 nM	101 to 500 nM	CC(=O)Nc1cc(Cn2ccc3cc(-c4cnoc4C)ccc3c2=O)ccc1F [Compound 335]
10 to 100 nM	101 to 500 nM	CC(=O)Nc1cccc(Cn2ccc3cc(-c4c[nH]nc4C)ccc3c2=O)c1 [Compound 336]
10 to 100 nM	101 to 500 nM	CC(=O)Nc1cccc(Cn2ccc3cc(-c4c[nH]nc4C(F)(F)F)ccc3c2=O)c1 [Compound 337]
10 to 100 nM	11 to 100 nM	CC(C)C(=O)Nc1cccc(Cn2ccc3cc(-c4c[nH]nc4C(F)(F)F)ccc3c2=O)c1 [Compound 338]
10 to 100 nM	101 to 500 nM	O=C(Nc1cccc(Cn2ccc3cc(-c4c[nH]nc4C(F)(F)F)ccc3c2=O)c1)C1CCOCC1 [Compound 339]

IC50 [1]	IC50 [2]	SMILES
< 10 nM	11 to 100 nM	O=C(CCc1ccccn1)Nc1cccc(Cn2ccc3cc(-c4c[nH]nc4C(F)(F)F)ccc3c2=O)c1 [Compound 340]
10 to 100 nM	101 to 500 nM	CC(=O)Nc1cccc(Cn2ccc3cc(-c4c[nH]nc4C(F)F)ccc3c2=O)c1 [Compound 341]
10 to 100 nM	101 to 500 nM	O=C(Nc1cccc(Cn2ccc3cc(-c4c[nH]nc4C(F)F)ccc3c2=O)c1)c1cccnc1 [Compound 342]
10 to 100 nM	101 to 500 nM	O=C(Nc1cccc(Cn2ccc3cc(-c4c[nH]nc4C(F)F)ccc3c2=O)c1)C1COC1 [Compound 343]
< 10 nM	11 to 100 nM	COc1cccc(Cn2cnc3cc(-c4c[nH]nc4C(F)F)ccc3c2=O)c1 [Compound 359]
< 10 nM	11 to 100 nM	COc1cc(F)cc(Cn2cnc3cc(-c4c[nH]nc4C(F)F)ccc3c2=O)c1 [Compound 360]
< 10 nM	11 to 100 nM	COc1cc(F)cc(Cn2cnc3cc(-c4c[nH]nc4Cl)ccc3c2=O)c1 [Compound 361]
< 10 nM	11 to 100 nM	COc1cccc(Cn2cnc3cc(-c4c[nH]nc4Cl)ccc3c2=O)c1 [Compound 362]
< 10 nM	11 to 100 nM	CNC(=O)c1cccc(Cn2cnc3cc(-c4cn[nH]c4)ccc3c2=O)c1 [Compound 366, N-methyl-3-((4-oxo-7-(1H-pyrazol-4-yl)quinazolin-3(4H)-yl)methyl)benzamide]
< 10 nM	11 to 100 nM	CNC(=O)c1cccc(Cn2cnc3cc(-c4cn[nH]c4C(F)(F)F)ccc3c2=O)c1 [Compound 367]
< 10 nM	11 to 100 nM	[2H]C([2H])([2H])NC(=O)c1cccc(Cn2cnc3cc(-c4cn[nH]c4C(F)(F)F)ccc3c2=O)c1 [Compound 368]
< 10 nM	11 to 100 nM	CC(C)NC(=O)c1cccc(Cn2cnc3cc(-c4cn[nH]c4C(F)(F)F)ccc3c2=O)c1 [Compound 369]
< 10 nM	< 10 nM	O=C(NCCc1ccncc1)c1cccc(Cn2cnc3cc(-c4cn[nH]c4C(F)(F)F)ccc3c2=O)c1 [Compound 370]
< 10 nM	< 10 nM	O=C(NCc1ccncc1)c1cccc(Cn2cnc3cc(-c4cn[nH]c4C(F)(F)F)ccc3c2=O)c1 [Compound 372]
< 10 nM	11 to 100 nM	CS(=O)(=O)Nc1ccc(CNC(=O)c2cccc(Cn3cnc4cc(-c5cn[nH]c5C(F)(F)F)ccc4c3=O)c2)cc1 [Compound 373]
< 10 nM	11 to 100 nM	Cn1ccc(NC(=O)c2cccc(Cn3cnc4cc(-c5cn[nH]c5C(F)(F)F)ccc4c3=O)c2)n1 [Compound 374]
< 10 nM	11 to 100 nM	O=C(NC1CCOCC1)c1cccc(Cn2cnc3cc(-c4cn[nH]c4C(F)(F)F)ccc3c2=O)c1 [Compound 376]
